One assay relates to recombinant SmCB1. Briefly: Kinetic inhibition assay with recombinant SmCB1 (k2nd). Format: biochemical, S. mansoni. Conditions: for decrease in inhibitory potency vs gallinamide A / decrease in inhibition potency vs 8: ratio of k2nd values; for SmCB1 inhibition k2nd: second-order rate constant (kinact/Ki), substrate Cbz–Phe–Arg–AMC, pH 5.5, 37 °C, mean ± SE; for decrease in inhibition potency vs 8: range over the compounds named. As for the experimental part:
Gallinamide A and a series of its 18 derivatives were evaluated in vitro as inhibitors of SmCB1 to explore the binding specificities of the subsites in the enzyme’s active site. The gallinamide A inhibitor scaffold can be defined by positions P4 through P1′ (Schechter and Berger nomenclature[37]), which were assigned according to the binding mode analysis (see the crystallographic section below). The substituents R4, R1, and R1′ introduced on the scaffold (Table 2) are numbered according to the respective positions P4, P1, and P1′. The compounds’ second-order rate constants (k2nd) were determined using a kinetic inhibition assay with recombinant SmCB1 and the substrate, Cbz–Phe–Arg–AMC.
Inhibition measurements were performed in duplicate in 96-well microplates (100 μL assay volume) at 37 °C. SmCB1 (40 pM) was added to a mixture of the fluorogenic substrate Cbz–Phe–Arg–AMC (25 μM) and an inhibitor (0–100 μM) in 0.1 M sodium acetate, pH 5.5, containing 2.5 mM dithiothreitol and 0.01% (w/v) BRIJ 35. Substrate hydrolysis was monitored in an Infinite M1000 microplate reader (Tecan) at excitation and emission wavelengths of 360 and 465 nm, respectively, for up to 150 min. An observed first-order rate constant, kobs, was calculated at each inhibitor concentration by fitting the progress curve to the equation P = vi/kobs(1 – exp(−kobst)) + d where P is the product formation, t is the reaction time, vi is the initial velocity, and d is the offset. […] The second-order rate constant, k2nd, (and SE value) was determined by fitting the linear equation kobs = (k2nd[I])/(1 + [S]/Km), where [S] is the substrate concentration, [I] is the inhibitor concentration, and KM is the Michaelis–Menten constant. The KM value determined for SmCB1 was 25 μM. […] To determine IC50 values, SmCB1 (40 pM) was preincubated with the inhibitor (0–100 μM) for 30 min under assay conditions as described above, followed by the addition of the fluorogenic substrate Cbz–Phe–Arg–AMC (20 μM). Substrate hydrolysis was monitored for 30 min in a microplate reader as described above. The IC50 values were determined by nonlinear regression using GraFit software (Erithacus Software).

Assay [1] has as its system S. mansoni newly transformed schistosomula (NTS). Description: Phenotypic screen with newly transformed schistosomula (NTS). Format: cell-based. How it is done:
The same 19 gallinamides were screened for bioactivity against S. mansoni newly transformed schistosomula (NTS), the postinvasive parasite stage that feeds on host blood.[40] In this primary assay, the NTS were exposed to 1 and 10 μM compounds for 3 days, and the resulting phenotypic responses were graded from 0 through 4, i.e., the least to the most severe (Table 2 and Table S1). […] The effects were more pronounced after 72 h, and when the higher, 10 μM, compound concentration was used (Table S1). […] Also, compared to gallinamide A and its analogs, 3 has an additional N-terminal N-acetamide modification that further reduces bioactivity (Table 2).
Phenotypic screens employed S. mansoni newly transformed schistosomula (NTS) and adults and were carried out as described previously.[18]−[20],[42] NTS were prepared by mechanically transforming infective larvae (cercariae).[40],[42] NTS (200–300 parasites) were incubated in flat-bottomed 96-well plates in 200 μL of Basch Medium 169 containing 5% (v/v) FBS, 100 U mL^–1 penicillin and 100 μg mL^–1 streptomycin (complete Basch medium)[75] at 5% CO2 and 37 °C.[76],[77] Inhibitors were added at final concentrations of 1 and 10 μM, and changes in phenotypes were observed under an inverted microscope every 24 h for up to 72 h.
A constrained nomenclature of “descriptors”[39],[42] was used to record the multiple and dynamic changes in movement, shape, and translucence that the schistosome parasite is capable of (Table S1 for NTS and Table S3 for adults). These descriptors were then converted into an ordinal “severity score” system ranging from 0 (no effect) to 4 (maximum effect), which allows for the relative comparison of compound effects.

Where [2] appears, read: 1 μM compound, 24 h, scale 0 (no effect) to 4 (most severe).
[3] abbreviates: 1 μM compound, 48 h, scale 0 to 4.
The mark [4] stands for this setting: 1 μM compound, 72 h, scale 0 to 4.
Where [5] appears, read: 10 µM compound, 24 h, scale 0 to 4.
Setting [6] is: 10 µM compound, 48 h, scale 0 to 4.
[7] abbreviates: 10 µM compound, 72 h, scale 0 to 4.
Where [8] appears, read: Phe in R1 changed from S to R configuration.
The mark [9] stands for this setting: Phe in R1′ changed from S to R configuration.

For `COC1=CC(=O)N(C(=O)/C=C/[C@H](C)NC(=O)[C@H](CC(C)C)NC(=O)[C@H](CC(C)C)OC(=O)[C@H](C(C)C)N(C)C)[C@H]1C` [compound 2], the “decrease in inhibitory potency vs gallinamide A” value (“decrease in inhibitory potency” below) in the assay on recombinant SmCB1 was 2 fold. Further, the “SmCB1 inhibition k2nd” value in the assay on recombinant SmCB1 turned out to be 3334 ± 559 M^–1·s^–1. Besides, the schistosomula severity score in assay [1] (setting [2]) stood at 0; in assay [1] (setting [3]), 1; in assay [1] (setting [4]) it was 4; in assay [1] (setting [5]), 4; in assay [1] (setting [6]), 4; in assay [1] (setting [7]) it was 4.
Turning to `COC1=CC(=O)N(C(=O)/C=C/[C@H](Cc2ccccc2)NC(=O)[C@H](CC(C)C)NC(=O)[C@H](CC(C)C)OC(=O)[C@H](Cc2ccccc2)N(C)C)[C@H]1C` [compound 12], in the assay on recombinant SmCB1, the “decrease in inhibition potency vs 8” value was 4.2–49 fold. Further, the “SmCB1 inhibition k2nd” value in the assay with recombinant SmCB1 stood at 212 ± 30 M^–1·s^–1. Also, the schistosomula severity score came to 1 in assay [1] (setting [2]); 2 in assay [1] (setting [3]); 4 in assay [1] (setting [4]); 3 in assay [1] (setting [5]); 4 in assay [1] (setting [6]); 4 in assay [1] (setting [7]). The schistosomula phenotype descriptors result in assay [1] (1 µM compound, 48 h) is recorded as “Dark, R”; in assay [1] (10 µM compound, 24 h), “Dark, R, S”.
For `CCC(C)C(C(=O)OC(CC(C)C)C(=O)NC(CC(C)C)C(=O)NC(C=CC(=O)N1C(=O)C=C(OC)C1Cc1ccccc1)Cc1ccccc1)N(C)C` (centres unmarked) [compound 15], in the assay on recombinant SmCB1 (setting [8]), the “decrease in inhibition vs 7” value was 23 fold. The “improvement of inhibition vs 18” value in the assay with recombinant SmCB1 (setting [9]) amounted to 2.6 fold. In the assay on recombinant SmCB1, the “SmCB1 inhibition k2nd” value is reported as 41.6 ± 1.6 M^–1·s^–1. Also, the schistosomula severity score turned out to be 0 in assay [1] (setting [2]); 3 in assay [1] (setting [3]); 2 in assay [1] (setting [5]); 4 in assay [1] (setting [6]); 4 in assay [1] (setting [7]). For the same compound, the schistosomula phenotype descriptors entry in assay [1] (10 µM compound, 24 h) is “Dark, R”.
`CCC(C)C(C(=O)OC(CC(C)C)C(=O)NC(CC(C)C)C(=O)NC(C=CC(=O)N1C(=O)C=C(OC)C1CC(C)C)Cc1ccccc1)N(C)C` (centres unmarked) [compound 10]: in the assay on recombinant SmCB1, the “SmCB1 inhibition k2nd” value was 537 ± 48 M^–1·s^–1. In addition, the schistosomula severity score came out at 0 in assay [1] (setting [2]); 2 in assay [1] (setting [3]); 4 in assay [1] (setting [4]); 0 in assay [1] (setting [5]); 4 in assay [1] (setting [6]); 4 in assay [1] (setting [7]). Besides, the schistosomula phenotype descriptors result in assay [1] (1 µM compound, 48 h) was “Dark, R”.
As for `COC1=CC(=O)N(C(=O)/C=C/[C@H](Cc2ccccc2)NC(=O)[C@H](CC(C)C)NC(=O)[C@H](CC(C)C)OC(=O)[C@H](Cc2ccccc2)N(C)C)[C@@H]1Cc1ccccc1` [compound 13], the “improvement of inhibition vs 17” value in the assay on recombinant SmCB1 (setting [9]) is 6 fold. In the assay with recombinant SmCB1, the “SmCB1 inhibition k2nd” value came to 109 ± 2 M^–1·s^–1. Also, the schistosomula severity score in assay [1] (setting [2]) was determined as 0; in assay [1] (setting [3]) it was 2; in assay [1] (setting [4]), 4; in assay [1] (setting [5]), 2; in assay [1] (setting [6]) it was 4; in assay [1] (setting [7]), 4. In addition, the schistosomula phenotype descriptors entry in assay [1] (10 µM compound, 24 h) is reported as “Dark, R”.
For `CCC(C)C(C(=O)OC(CC(C)C)C(=O)NC(CC(C)C)C(=O)NC(C)CCC(=O)N1C(=O)C=C(OC)C1C)N(C)C` (centres unmarked) [compound 16], the “decrease in k2nd” value in the assay on recombinant SmCB1 (absence of a double bond in the acrylamide group) is given as 2 orders of magnitude. For the same compound, the “SmCB1 inhibition k2nd” value with recombinant SmCB1 was 36.9 ± 0.3 M^–1·s^–1. Besides, the schistosomula severity score in assay [1] (setting [2]) worked out at 0; in assay [1] (setting [3]), 0; in assay [1] (setting [4]), 0; in assay [1] (setting [5]), 0; in assay [1] (setting [6]), 2; in assay [1] (setting [7]) it was 2. Further, the schistosomula phenotype descriptors entry in assay [1] (10 µM compound, 48 h) is “Dark, R”; in assay [1] (10 µM compound, 72 h) it was “Dark, R”.
For the compound `CCC(C)C(C(=O)OC(CC(C)C)C(=O)NC(CC(C)C)C(=O)NC(C=CC(=O)N1C(=O)C=C(OC)C1C)Cc1ccccc1)N(C)C` (centres unmarked) [compound 8], in the assay with recombinant SmCB1, the “decrease in inhibitory potency” value was 7.5 fold. The “SmCB1 inhibition k2nd” value in the assay on recombinant SmCB1 amounted to 887 ± 46 M^–1·s^–1. Besides, the schistosomula severity score in assay [1] (setting [2]) is 1; in assay [1] (setting [3]) it was 4; in assay [1] (setting [4]), 4; in assay [1] (setting [5]) it was 3; in assay [1] (setting [6]) it was 4; in assay [1] (setting [7]) it was 4. Moreover, in assay [1] (10 µM compound, 24 h), the schistosomula phenotype descriptors entry was “Dark, R, S”.
In the case of `CCC(C)C(C(=O)OC(CC(C)C)C(=O)NC(CC(C)C)C(=O)NC(C=CC(=O)N1C(=O)C=C(OC)C1Cc1ccccc1)Cc1ccccc1)N(C)C` (centres unmarked) [compound 14], in the assay with recombinant SmCB1, the “decrease in inhibition potency vs 8” value was 4.2–49 fold. The “SmCB1 inhibition k2nd” value in the assay with recombinant SmCB1 is 54.5 ± 1.3 M^–1·s^–1. Moreover, the schistosomula severity score in assay [1] (setting [2]) turned out to be 0; in assay [1] (setting [3]), 3; in assay [1] (setting [4]) it was 4; in assay [1] (setting [5]) it was 1; in assay [1] (setting [6]) it was 4; in assay [1] (setting [7]), 4.
On to `CCC(C)C(C(=O)OC(CC(C)C)C(=O)NC(CC(C)C)C(=O)NC(C=CC(=O)N1C(=O)C=C(OC)C1Cc1ccccc1)Cc1ccccc1)N(C)C` (centres unmarked) [compound 18], for which, in the assay with recombinant SmCB1 (setting [8]), the “decrease in inhibition vs 14” value worked out at 3.4 fold. In the assay on recombinant SmCB1, the “SmCB1 inhibition k2nd” value was found to be 16.0 ± 0.2 M^–1·s^–1. Moreover, the schistosomula severity score came out at 0 in assay [1] (setting [2]); 0 in assay [1] (setting [3]); 0 in assay [1] (setting [4]); 1 in assay [1] (setting [5]); 4 in assay [1] (setting [6]); 4 in assay [1] (setting [7]).
Take `COC1=CC(=O)N(C(=O)/C=C/[C@H](Cc2ccccc2)NC(=O)[C@H](CC(C)C)NC(=O)[C@H](CC(C)C)OC(=O)[C@H](C(C)C)N(C)C)[C@H]1CC(C)C` [compound 11]: the “SmCB1 inhibition k2nd” value in the assay on recombinant SmCB1 is on record as 295 ± 17 M^–1·s^–1. In addition, the schistosomula severity score in assay [1] (setting [2]) is 1; in assay [1] (setting [3]), 3; in assay [1] (setting [4]), 4; in assay [1] (setting [5]), 1; in assay [1] (setting [6]), 4; in assay [1] (setting [7]), 4. For the same compound, the schistosomula phenotype descriptors entry in assay [1] (1 µM compound, 48 h) was “Dark, R, S”.
In the case of `CCC(C)C(C(=O)NC(CC(C)C)C(=O)NC(CC(C)C)C(=O)NC(C)C=CC(=O)N1C(=O)C=C(OC)C1C)N(C)C` (centres unmarked) [compound 4], the “decrease in inhibitory potency” value in the assay on recombinant SmCB1 was found to be 2.3 fold. For the same compound, the “SmCB1 inhibition k2nd” value with recombinant SmCB1 was determined as 2894 ± 113 M^–1·s^–1. Moreover, the schistosomula severity score in assay [1] (setting [2]) is on record as 0; in assay [1] (setting [3]), 0; in assay [1] (setting [4]), 4; in assay [1] (setting [5]), 1; in assay [1] (setting [6]), 4; in assay [1] (setting [7]), 4.

The values are drawn from publication PMC11184554, “Nature-Inspired Gallinamides Are Potent Antischistosomal Agents: Inhibition of the Cathepsin B1 Protease Target and Binding Mode Analysis” (ACS Infectious Diseases, 2024).
